Results: publication PMC9098178, “SAR of Novel 3-Arylisoquinolinones: meta-Substitution on the Aryl Ring Dramatically Enhances Antiproliferative Activity through Binding to Microtubules” (Journal of Medicinal Chemistry, 2022)

What was measured:
[1] = test system: MCF-7; assay: SRB antiproliferative assay, MCF-7; format: cell-based, human; details: Homo sapiens, MCF7, 96 h treatment, mean ± SEM, read-out: IC50 MCF-7 (prescreen)
Protocol: Initially, the human breast cancer cell line MCF-7 was used in a prescreen analysis of the anticancer activity of 3-arylisoquinolinones. The cells were treated with serial concentrations of compounds 2–8 for 96 h prior to the assessment of proliferation using the sulforhodamine B (SRB) assay. For each compound, the concentration required to inhibit cell growth by 50% compared to that of the untreated control cells (IC50) was determined (Table 1).
(§1) All cell lines used in the study were human-derived and purchased from ATCC (Manassas, USA). Breast adenocarcinoma MCF-7 and MDA-MB-231 cell lines were cultured in DMEM. Hepatocellular carcinoma HepG2 and SNU423 cell lines were grown in MEME combined with 1% (v/v) nonessential amino acids and RPMI supplemented with 2 mM glutamine, respectively. Lung adenocarcinoma A549 and colorectal carcinoma HCT116 cells were grown in RPMI (+2 mM glutamine). All previous media were further supplemented with 10% heat-inactivated fetal bovine serum. The immortalized, normal liver THLE-3 cells were grown in BEGM (Lonza, Cat# CC-3170) onto precoated vessels according to ATCC’s instructions. Human umbilical vein endothelial cells (HUVECs) were cultured in EGM-2 (Lonza, Cat# CC-3162). All of the cells were maintained at 37 °C and 5% CO2 in a humidified incubator.
(§2) Screening of the antiproliferative activity of 3-arylisoquinolinones was performed using the SRB assay as previously described.[56] Exponentially growing HepG2, SNU423, MDA-MB-231, MCF-7, A549, HCT116, THLE-3, and HUVECs were seeded in 96-well plates at densities of 3000, 2000, 1500, 2500, 1000, 1000, 4000, and 4000 cells/well, respectively. These densities were experimentally selected so that the DMSO-treated cells (control) were approximately 80–90% confluent at the assay’s endpoint, and their optical density (OD) values fell within the assay’s linear range. After overnight incubation, the cells were treated with a range of concentrations of the respective compounds for 96 h, 24 h followed by 72 h compound-free incubation or 24 h (for HUVECs only). After treatment, cell monolayers were fixed with 10% (w/v) trichloroacetic acid for 1 h at 4 °C, washed, and dried. Then, the cells were exposed to 0.4% (w/v) SRB dye (prepared in 1% (v/v) acetic acid; Botium, Cat# 80100) for 15 min followed by several 1% acetic acid washing and then drying. Finally, the cellular protein-bound SRB was thoroughly dissolved in 10 mM Tris base, and the OD values were read at 510 nm using a plate reader (μQuant Microplate Spectrophotometer, Biotek, U.K.) coupled with Gen5 software (BioTek, U.K.). Compound-induced changes in cell growth were inferred from changes in OD values. Cell growth was calculated using the following formula: cell growth (%) = (ODtest/ODcontrol) × 100.

[2] = test system: HepG2; assay: SRB antiproliferative assay, HepG2; format: cell-based, human; details: Homo sapiens, HepG2, 96 h treatment, mean ± SEM, read-out: IC50 HepG2
Protocol: (§3) In light of this substantial change in activity between the meta and para compounds, a more comprehensive analysis of the antiproliferative activity was performed for the meta-/para-3-arylisoquinolinone pairs 2 and 3, 4, and 5, as well as 6. A panel of breast (MDA-MB-231), liver (HepG2, SNU423), lung (A549), and colon (HCT116) cancer cell lines were treated with the five 3-arylisoquinolinone analogs for 96 h followed by the SRB assay. The dose–response curves (including those for MCF-7) are presented in Figure S22, and their relevant IC50 values are listed in Table 1. […] The differential activity between meta- and para-3-arylisoquinolinones was reproduced in the National Cancer Institute (NCI) one-dose screen using a panel of 59 cancer cell lines (Figure S23).
as §1, §2

[3] = test system: HCT116; assay: SRB antiproliferative assay, HCT116; format: cell-based, human; details: Homo sapiens, HCT-116, 96 h treatment, mean ± SEM, read-out: IC50 HCT116
Protocol: as §3, §1, §2

[4] = test system: purified bovine tubulin; assay: Cell-free tubulin polymerization assay; format: biochemical
Source text: Experimentally, the direct interaction of 4 with tubulin was investigated in a cell-free system using a tubulin polymerization assay. […] In control samples, α- and β-tubulin subunits were able to heterodimerize and assemble into microtubules in a time-dependent manner as indicated by increasing absorbance values over time. […] This indicates the incidence of fast polymerization associated with the formation of a denser microtubule mass. […] It is worth mentioning that microtubule dynamics can be potently altered by microtubule-stabilizing or -destabilizing compounds at doses 10- to 100-fold lower than those required for increasing or decreasing the microtubule polymer mass.[31]
The cell-free tubulin polymerization experiment was performed using the Tubulin Polymerization Assay Kit according to the manufacturer’s instructions (Millipore, Cat# 17-10194). The light absorbed by microtubules, which were formed upon tubulin polymerization, is directly proportional to the polymer mass. […] Immediately, the plate was placed in a 37 °C-prewarmed plate reader (BMG LABTECH FLUOstar Omega, Germany) and the absorbance was measured at 1 min intervals for 60 min at a wavelength of 350 nm. The delta absorbance (ΔA) was calculated by subtracting the absorbance values of zero time from those of the subsequent time points and then plotted versus time.

[5] = test system: HUVECs; assay: Cytoskeleton immunofluorescence; format: cell-based, human; details: 0.5, 1 μM, 24 h
Source text: The disruption was characterized by shortened microtubules with outer blebbing filled with tubulin and thicker and brighter actin fibers (stress fibers). Many rounded and retracted cells were also observed in HUVECs treated with 4. […] Taken together, 4 induced morphological alterations in endothelial cells are possibly the reason behind the disruption of the preexisting tubes of HUVECs cultured on Matrigel. […] Throughout the next steps, all of the reagents were removed by washing, flicking, and gently dabbing the slide against a tissue paper. The cells were then washed with PBS containing calcium and magnesium (Sigma, Cat# D1283), fixed with 10% formalin solution (Sigma, Cat# HT5014) for 15 min, and permeabilized with 0.2% (v/v) Triton X-100 for 5 min. Next, the cells were exposed to 1 h incubation with blocking buffer made of 10% (v/v) normal goat serum (Vector Laboratories, Cat# S-1000), 1% (w/v) bovine serum albumin (Sigma, Cat# A9418), and 0.3 M glycine in PBS-T (0.05% Tween-20 in PBS). The cells were then incubated with rabbit α-tubulin primary antibody (1:1000 in the blocking buffer, Abcam, Cat# ab52866) for 2 h at RT after three times washing with PBS-T, each for 5 min. […] Finally, the cytoskeleton was visualized at 63x, oil-based magnification using fluorescence, inverted microscope (Leica DMI6000B, Leica Microsystems). […]

SMILES	IC50 [1] [µM]	IC50 [2] [µM]	IC50 [3] [µM]	suppression of tubulin polymerization at highest concentration ([4]; 20 μM, nocodazole 10 μM)	effect on tubulin polymerization ([4]; 5, 10, 20 μM, 37 °C, absorbance 350 nm)	effect on cytoskeleton network (actin and microtubules) [5]
O=c1[nH]c(-c2ccc(F)cc2)cc2cc(F)ccc12 [compound 5, 6-Fluoro-3-(4-fluorophenyl)isoquinolin-1(2H)-one]	> 50	> 50	> 50			
O=c1[nH]c(-c2cccc(F)c2)cc2cc(F)ccc12 [compound 4, 6-Fluoro-3-(3-fluorophenyl)isoquinolin-1(2H)-one]				as effective in suppressing tubulin polymerization as the positive control (nocodazole)	hindered tubulin polymerization in a concentration-dependent manner	marked disruption in the cytoskeleton network
